Experimental data reported in ChEMBL document CHEMBL5291721, “A preclinical secondary pharmacology resource illuminates target-adverse drug reaction associations of marketed drugs” (Nat Commun, 2023).

How the values were obtained:
[1] = target: 3',5'-cyclic-AMP phosphodiesterase 4D (Homo sapiens, UniProt Q08499); assay type: functional
[2] = target: Glutamate receptor ionotropic, NMDA 1 (Rattus norvegicus, UniProt P35439)
Histamine H1 receptor = Histamine H1 receptor (Homo sapiens, UniProt P35367)
D(1A) dopamine receptor = D(1A) dopamine receptor (Homo sapiens, UniProt P21728); assay type: functional, cell-based
[3] = target: T1, Cholecystokinin receptor type A (Homo sapiens, UniProt P32238)
T1 sequence (P32238 whole entry): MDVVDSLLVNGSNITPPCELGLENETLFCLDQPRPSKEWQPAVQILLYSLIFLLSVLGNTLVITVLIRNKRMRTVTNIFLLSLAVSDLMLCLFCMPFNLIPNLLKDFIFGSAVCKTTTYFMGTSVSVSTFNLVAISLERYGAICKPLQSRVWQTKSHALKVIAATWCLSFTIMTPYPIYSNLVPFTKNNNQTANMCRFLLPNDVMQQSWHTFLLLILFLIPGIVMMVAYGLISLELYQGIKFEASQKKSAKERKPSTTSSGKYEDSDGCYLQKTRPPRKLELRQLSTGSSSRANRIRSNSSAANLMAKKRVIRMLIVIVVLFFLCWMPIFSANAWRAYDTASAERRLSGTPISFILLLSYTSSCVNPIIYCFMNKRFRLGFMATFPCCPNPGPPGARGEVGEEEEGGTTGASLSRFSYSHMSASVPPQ

[4] = target: T2, 5-hydroxytryptamine receptor 3A (Homo sapiens, UniProt P46098); assay type: functional
T2 sequence (P46098 whole entry): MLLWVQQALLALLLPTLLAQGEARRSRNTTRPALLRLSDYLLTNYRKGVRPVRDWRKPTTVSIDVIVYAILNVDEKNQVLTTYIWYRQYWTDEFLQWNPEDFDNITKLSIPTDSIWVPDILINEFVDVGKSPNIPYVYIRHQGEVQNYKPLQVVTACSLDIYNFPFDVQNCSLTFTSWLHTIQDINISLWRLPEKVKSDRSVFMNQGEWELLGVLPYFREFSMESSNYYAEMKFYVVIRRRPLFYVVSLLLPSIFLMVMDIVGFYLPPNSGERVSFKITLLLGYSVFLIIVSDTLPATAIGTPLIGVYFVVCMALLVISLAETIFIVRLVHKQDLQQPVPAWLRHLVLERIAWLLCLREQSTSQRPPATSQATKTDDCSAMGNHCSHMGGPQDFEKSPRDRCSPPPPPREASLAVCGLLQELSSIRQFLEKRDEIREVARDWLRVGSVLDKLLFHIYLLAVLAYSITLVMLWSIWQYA

Melanocortin receptor 3 = Melanocortin receptor 3 (Homo sapiens, UniProt P41968)
[5] = target: Sodium-dependent noradrenaline transporter (Homo sapiens, UniProt P23975)
[6] = target: T3, 5-hydroxytryptamine receptor 1A (Homo sapiens, UniProt P08908); assay type: functional, cell-based
T3 sequence (P08908 whole entry): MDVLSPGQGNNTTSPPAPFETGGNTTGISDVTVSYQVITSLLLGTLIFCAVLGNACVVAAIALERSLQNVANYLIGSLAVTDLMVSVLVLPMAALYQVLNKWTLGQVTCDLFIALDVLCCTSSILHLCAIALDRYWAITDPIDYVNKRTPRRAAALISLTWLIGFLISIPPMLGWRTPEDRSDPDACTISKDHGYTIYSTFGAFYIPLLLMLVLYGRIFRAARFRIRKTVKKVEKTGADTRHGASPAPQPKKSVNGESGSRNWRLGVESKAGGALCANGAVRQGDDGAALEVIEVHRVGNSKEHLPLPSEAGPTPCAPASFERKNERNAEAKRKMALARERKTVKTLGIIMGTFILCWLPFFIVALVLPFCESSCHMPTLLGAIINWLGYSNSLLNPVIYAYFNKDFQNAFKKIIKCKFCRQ

[7] = target: T4, Neuropeptide Y receptor type 1 (Homo sapiens, UniProt P25929)
T4 sequence (P25929 whole entry): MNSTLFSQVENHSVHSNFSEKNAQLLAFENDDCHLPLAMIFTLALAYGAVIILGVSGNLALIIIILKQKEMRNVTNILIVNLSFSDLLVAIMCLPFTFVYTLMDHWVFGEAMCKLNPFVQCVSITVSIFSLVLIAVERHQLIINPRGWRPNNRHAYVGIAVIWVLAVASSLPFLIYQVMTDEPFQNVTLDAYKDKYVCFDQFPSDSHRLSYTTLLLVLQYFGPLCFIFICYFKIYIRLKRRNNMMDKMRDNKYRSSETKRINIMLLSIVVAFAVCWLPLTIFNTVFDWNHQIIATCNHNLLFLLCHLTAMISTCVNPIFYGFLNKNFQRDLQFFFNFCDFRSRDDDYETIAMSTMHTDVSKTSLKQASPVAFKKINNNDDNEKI

[8] = target: T5, Alpha-1A adrenergic receptor (Homo sapiens, UniProt P35348); assay type: functional, cell-based
T5 sequence (P35348 whole entry): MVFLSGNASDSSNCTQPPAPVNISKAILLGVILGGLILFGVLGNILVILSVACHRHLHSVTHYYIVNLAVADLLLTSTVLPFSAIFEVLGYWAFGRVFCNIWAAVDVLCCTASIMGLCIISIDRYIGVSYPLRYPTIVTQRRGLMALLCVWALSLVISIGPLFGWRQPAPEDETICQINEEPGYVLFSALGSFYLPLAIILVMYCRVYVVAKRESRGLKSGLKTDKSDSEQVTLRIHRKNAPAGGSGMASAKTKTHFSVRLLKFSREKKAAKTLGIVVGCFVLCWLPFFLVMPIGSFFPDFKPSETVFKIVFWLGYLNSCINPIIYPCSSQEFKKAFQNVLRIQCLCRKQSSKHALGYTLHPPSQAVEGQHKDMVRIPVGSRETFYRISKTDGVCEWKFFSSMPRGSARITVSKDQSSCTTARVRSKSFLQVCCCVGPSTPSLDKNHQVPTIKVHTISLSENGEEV
Note: assay procedure not described here.

Chain of Histamine H1 receptor (P35367 whole entry): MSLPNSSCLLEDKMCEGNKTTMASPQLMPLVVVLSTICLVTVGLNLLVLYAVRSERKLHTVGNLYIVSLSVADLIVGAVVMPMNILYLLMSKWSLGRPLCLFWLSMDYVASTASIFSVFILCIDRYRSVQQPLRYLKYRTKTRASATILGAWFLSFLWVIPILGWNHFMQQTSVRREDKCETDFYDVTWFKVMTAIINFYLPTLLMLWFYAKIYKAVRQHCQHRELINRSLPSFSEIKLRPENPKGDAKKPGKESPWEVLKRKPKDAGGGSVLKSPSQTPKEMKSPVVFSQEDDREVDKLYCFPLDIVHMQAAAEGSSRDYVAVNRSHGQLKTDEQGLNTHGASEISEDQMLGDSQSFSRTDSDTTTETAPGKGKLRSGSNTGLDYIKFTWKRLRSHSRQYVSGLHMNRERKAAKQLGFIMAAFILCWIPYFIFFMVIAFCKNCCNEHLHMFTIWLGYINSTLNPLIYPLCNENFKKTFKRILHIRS
Chain of Sodium-dependent noradrenaline transporter (P23975 whole entry): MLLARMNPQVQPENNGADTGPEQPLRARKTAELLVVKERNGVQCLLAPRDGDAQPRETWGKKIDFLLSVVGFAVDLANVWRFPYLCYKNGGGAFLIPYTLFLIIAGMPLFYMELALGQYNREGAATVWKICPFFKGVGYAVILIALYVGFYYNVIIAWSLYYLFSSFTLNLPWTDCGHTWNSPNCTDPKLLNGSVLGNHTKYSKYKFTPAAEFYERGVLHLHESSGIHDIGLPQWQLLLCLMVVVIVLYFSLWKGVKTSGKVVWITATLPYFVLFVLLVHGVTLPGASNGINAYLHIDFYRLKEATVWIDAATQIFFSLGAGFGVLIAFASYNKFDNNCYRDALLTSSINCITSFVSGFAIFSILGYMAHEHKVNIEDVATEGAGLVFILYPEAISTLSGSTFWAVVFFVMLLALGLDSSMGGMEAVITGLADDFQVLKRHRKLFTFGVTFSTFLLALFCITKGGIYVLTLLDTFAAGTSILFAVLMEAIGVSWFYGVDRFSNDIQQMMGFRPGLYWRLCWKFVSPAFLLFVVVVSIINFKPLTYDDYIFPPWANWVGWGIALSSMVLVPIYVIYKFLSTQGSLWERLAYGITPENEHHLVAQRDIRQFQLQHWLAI
Chain of D(1A) dopamine receptor (P21728 whole entry): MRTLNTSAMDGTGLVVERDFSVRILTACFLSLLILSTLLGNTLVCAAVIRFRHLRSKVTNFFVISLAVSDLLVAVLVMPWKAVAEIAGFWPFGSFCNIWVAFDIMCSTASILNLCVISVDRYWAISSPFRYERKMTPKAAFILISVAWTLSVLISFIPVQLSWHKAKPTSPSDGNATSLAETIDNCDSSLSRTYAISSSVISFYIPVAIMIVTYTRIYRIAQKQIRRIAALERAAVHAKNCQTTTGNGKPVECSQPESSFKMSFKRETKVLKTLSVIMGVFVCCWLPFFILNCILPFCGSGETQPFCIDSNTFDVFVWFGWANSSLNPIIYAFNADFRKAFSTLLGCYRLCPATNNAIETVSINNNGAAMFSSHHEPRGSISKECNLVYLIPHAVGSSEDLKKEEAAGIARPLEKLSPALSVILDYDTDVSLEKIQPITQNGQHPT
Chain of 3',5'-cyclic-AMP phosphodiesterase 4D (Q08499 whole entry): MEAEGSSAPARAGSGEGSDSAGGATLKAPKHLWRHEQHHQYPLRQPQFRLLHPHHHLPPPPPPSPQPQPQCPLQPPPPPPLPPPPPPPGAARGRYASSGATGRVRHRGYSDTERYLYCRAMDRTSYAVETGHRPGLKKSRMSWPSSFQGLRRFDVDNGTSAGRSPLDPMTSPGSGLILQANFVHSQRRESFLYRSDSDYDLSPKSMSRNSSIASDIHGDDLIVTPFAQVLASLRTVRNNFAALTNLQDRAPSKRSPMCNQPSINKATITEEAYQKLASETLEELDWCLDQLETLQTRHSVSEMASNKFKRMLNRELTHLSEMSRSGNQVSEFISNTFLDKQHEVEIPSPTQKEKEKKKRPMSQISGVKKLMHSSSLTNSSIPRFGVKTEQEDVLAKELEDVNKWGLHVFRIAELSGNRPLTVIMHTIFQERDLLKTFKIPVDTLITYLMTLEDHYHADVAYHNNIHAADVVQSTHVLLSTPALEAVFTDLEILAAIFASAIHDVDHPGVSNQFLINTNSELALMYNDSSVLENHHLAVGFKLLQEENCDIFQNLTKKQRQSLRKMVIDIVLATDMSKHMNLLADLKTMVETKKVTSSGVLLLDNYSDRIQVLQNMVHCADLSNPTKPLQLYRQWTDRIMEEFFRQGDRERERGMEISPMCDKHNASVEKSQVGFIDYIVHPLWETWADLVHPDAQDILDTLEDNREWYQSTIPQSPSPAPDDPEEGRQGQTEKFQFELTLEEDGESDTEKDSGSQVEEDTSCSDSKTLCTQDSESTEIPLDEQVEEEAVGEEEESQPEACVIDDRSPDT
Chain of Melanocortin receptor 3 (P41968 whole entry): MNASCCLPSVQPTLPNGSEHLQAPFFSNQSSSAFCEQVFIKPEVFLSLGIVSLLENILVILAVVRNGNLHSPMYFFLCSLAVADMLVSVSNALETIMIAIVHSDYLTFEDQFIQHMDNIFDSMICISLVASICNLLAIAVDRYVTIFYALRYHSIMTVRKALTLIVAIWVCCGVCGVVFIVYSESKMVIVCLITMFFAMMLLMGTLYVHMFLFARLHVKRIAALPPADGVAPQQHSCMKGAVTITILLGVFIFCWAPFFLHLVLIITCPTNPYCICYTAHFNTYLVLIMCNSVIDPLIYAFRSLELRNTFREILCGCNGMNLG

Compound | AC50 [1] [µM] | AC50 [2] [µM] | AC50 (Histamine H1 receptor) [µM] | AC50 (D(1A) dopamine receptor) [µM] | AC50 [3] [µM] | AC50 [4] [µM] | AC50 (Melanocortin receptor 3) [µM] | AC50 [5] [µM] | AC50 [6] [µM] | AC50 [7] [µM] | AC50 [8] [µM]
COc1ccc(C(Cl)=C(c2ccc(OC)cc2)c2ccc(OC)cc2)cc1 [CHLOROTRIANISENE] | > 30 | > 30 | > 30 | > 30 | > 30 | > 30 | > 30 | > 30 | > 30 | > 30 | 21
Oc1cc(O)c2c(c1)O[C@H](c1ccc(O)c(O)c1)[C@@H](O)C2 [CIANIDANOL] | > 30 | > 10 | > 10 | > 10 | > 30 | > 30 | > 30 | > 30 | > 10 | > 30 | > 30
CCCO[C@H]1[C@@H]([C@@H](COCc2ccc(Cl)cc2)OCc2ccc(Cl)cc2)OC(OCC)[C@@H]1O (stereo partly specified) [CLOBENOSIDE] | > 30 | > 30 | > 30 | > 30 | > 30 | > 30 | > 30 | > 30 | > 30 | > 30 | > 30
C=C(c1ccccc1OCc1cccc(Cl)c1)n1ccnc1 [CROCONAZOLE] | 7.1 | > 10 | > 10 | > 10 | > 30 | > 30 | > 30 | 1.8 | > 10 | > 30 | 21
CCCCCCOC(=O)NC(=N)c1ccc(NCc2nc3cc(C(=O)N(CCC(=O)OCC)c4ccccn4)ccc3n2C)cc1 [DABIGATRAN ETEXILATE] | > 30 | > 30 | > 30 | > 30 | > 30 | > 30 | > 30 | 6.3 | > 30 | > 30 | > 30
CC(=O)Oc1cccc2c1C(=O)c1c(OC(C)=O)cc(C(=O)O)cc1C2=O [DIACEREIN] | 8.8 | > 30 | > 30 | > 30 | > 30 | > 30 | > 30 | 13 | 18 | > 30 | 13
CCN(CC)C(C)C(=O)c1ccccc1 (stereo unspecified) [DIETHYLPROPION] | > 30 | > 10 | 12 | > 10 | > 30 | > 30 | > 30 | > 30 | > 10 | > 30 | > 30
CCN1C(=O)NC(c2ccccc2)C1=O (stereo unspecified) [ETHOTOIN] | > 30 | > 30 | > 30 | > 30 | > 30 | > 30 | > 30 | > 30 | > 30 | > 30 | > 30
Cc1ccc(-c2ncc(Cl)cc2-c2ccc(S(C)(=O)=O)cc2)cn1 [ETORICOXIB] | 9 | > 10 | > 10 | > 10 | > 10 | > 10 | > 10 | > 10 | > 10 | > 10 | > 30
Cc1ccc(S(=O)(=O)NC(=O)N[C@H]2[C@H]3CC[C@@](C)([C@H]2O)C3(C)C)cc1 [GLIBORNURIDE] | > 30 | > 30 | > 30 | > 30 | > 30 | > 30 | > 30 | > 30 | > 30 | > 30 | > 30
COc1ccc2c3c1O[C@H]1C(=O)CC[C@H]4[C@@H](C2)N(C)CC[C@]314 [HYDROCODONE] | 9.5 | > 10 | > 10 | > 10 | > 30 | > 30 | > 30 | > 10 | > 10 | > 30 | > 30
O=C(C[S+]([O-])Cc1ccco1)NC/C=C\COc1cc(CN2CCCCC2)ccn1 (stereo unspecified) [LAFUTIDINE] | > 30 | > 10 | > 10 | > 10 | > 10 | > 30 | > 10 | > 10 | > 30 | > 10 | > 30
O=C(O)c1nn(Cc2ccc(Cl)cc2Cl)c2ccccc12 [LONIDAMINE] | > 30 | > 30 | > 30 | > 30 | > 30 | > 30 | > 30 | > 30 | > 30 | > 30 | > 30
COC(=O)c1ccc2c(c1)NC(=O)/C2=C(\Nc1ccc(N(C)C(=O)CN2CCN(C)CC2)cc1)c1ccccc1 [NINTEDANIB] | > 30 | > 30 | > 30 | > 30 | > 30 | > 30 | > 30 | > 30 | > 30 | > 30 | > 30
CCN(CC)Cc1nccn1-c1ccc([N+](=O)[O-])cc1C(=O)c1ccccc1Cl [NIZOFENONE] | > 30 | > 30 | > 30 | > 30 | > 30 | > 30 | > 30 | > 30 | > 30 | > 30 | > 30
CC(C)(N)Cc1ccccc1 [PHENTERMINE] | > 30 | > 10 | > 10 | > 10 | > 30 | > 30 | > 30 | 5.73 | > 10 | > 30 | > 30
